Columns and labels:
pigweed = assay: Test C pre-/postemergence herbicide test; type: in vivo, Amaranthus retroflexus
How it was run: (§1)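 Compound solutions contained surfactant in a non-phytotoxic solvent. These were sprayed onto pots of loam/sand sown with seeds, and onto young plants (2 to 18 cm, 1- to 4-leaf) in sphagnum peat–vermiculite mix. Visual injury scores (0 none, 100 complete control) were recorded after 13 to 15 days.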

rice = assay: Test B flooded paddy test; type: in vivo, Oryza sativa; details: 500 g ai/ha, Flood; scale of 0 to 100 where 0 is no effect and 100 is complete control
How it was run: (§2)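 Scoring: visual, compared with untreated controls, 0 = no effect through 100 = complete control, taken 13 to 15 days after treatment in the greenhouse. Compounds had been added to paddy water over soil flooded 3 cm deep at the plants' 2-leaf stage.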

crabgrass, large = assay: Test C pre-/postemergence herbicide test; type: in vivo, Digitaria sanguinalis
How it was run: as §1

blackgrass = assay: Test C pre-/postemergence herbicide test; type: in vivo, Alopecurus myosuroides
How it was run: as §1

barnyardgrass = assay: Test B flooded paddy test; type: in vivo, Echinochloa crus-galli; details: 500 g ai/ha, Flood; scale of 0 to 100 where 0 is no effect and 100 is complete control
How it was run: as §2

johnsongrass = assay: Test C pre-/postemergence herbicide test; type: in vivo, Sorghum halepense
How it was run: as §1

ragweed = assay: Test C pre-/postemergence herbicide test; type: in vivo, Ambrosia elatior
How it was run: as §1

wheat = assay: Test A pre-/postemergence herbicide test; type: in vivo, Triticum aestivum; details: Postemergence
How it was run: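 Formulated compound (non-phytotoxic solvent, surfactant) sprayed pre- onto soil of seeded loam/sand pots or post- onto seedlings at 1–2 leaves; ~10 d greenhouse; 0–100 visual control rating versus untreated.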

oilseed rape = assay: Test C pre-/postemergence herbicide test; type: in vivo, Brassica napus
How it was run: as §1

wheat (winter wheat) = assay: Test C pre-/postemergence herbicide test; type: in vivo, Triticum aestivum
How it was run: as §1

velvetleaf = assay: Test C pre-/postemergence herbicide test; type: in vivo, Abutilon theophrasti
How it was run: as §1

sedge, umbrella = assay: Test B flooded paddy test; type: in vivo, Cyperus difformis; details: 500 g ai/ha, Flood; scale of 0 to 100 where 0 is no effect and 100 is complete control
How it was run: as §2

[1] = Preemergence, 31 g ai/ha, scale 0 to 100, 0 is no effect and 100 is complete control
[2] = Preemergence, 62 g ai/ha, scale 0 to 100 (0 no effect, 100 complete control)
[3] = Preemergence, 125 g ai/ha, scale 0 to 100
[4] = 125 g ai/ha, visual rating on 0 to 100 scale (0 no effect, 100 complete control), approx. 10 days
[5] = 500 g ai/ha, 0 to 100 scale (0 no effect, 100 complete control)
[6] = Postemergence, 31 g ai/ha, scale 0 to 100 (0 no effect, 100 complete control)
[7] = Postemergence, 62 g ai/ha, scale 0 (no effect) to 100 (complete control)
[8] = Postemergence, 125 g ai/ha, scale 0 to 100 (0 no effect, 100 complete control)
[9] = Postemergence, 250 g ai/ha, scale 0 to 100 (0 no effect, 100 complete control)

O=C1NCC(c2cccc(Br)c2)C1C(=O)Nc1ccccc1F (stereo not shown) [Compound 307]
Pigweed plant response rating (pigweed; [1]): 0
Pigweed plant response rating (pigweed; [2]): 0
Plant response rating, Pigweed (pigweed; [3]): 40
Plant response rating (scale of 0 to 100), Pigweed (pigweed; Preemergence, 250 g ai/ha): 35
Plant response rating, Rice (rice): 0
Crabgrass, Large plant response rating (crabgrass, large; [1]): 90
Crabgrass, Large plant response rating (crabgrass, large; [2]): 95
Plant response rating, Crabgrass, Large (crabgrass, large; [3]): 95
Plant response rating (scale of 0 to 100), Crabgrass, Large (crabgrass, large; Preemergence, 250 g ai/ha): 100
Blackgrass plant response rating (blackgrass; [1]): 0
Blackgrass plant response rating (blackgrass; [2]): 0
Plant response rating, Blackgrass (blackgrass; [3]): 10
Plant response rating (scale of 0 to 100), Blackgrass (blackgrass; Preemergence, 250 g ai/ha): 5
Plant response rating, Barnyardgrass (barnyardgrass): 65
Johnsongrass plant response rating (johnsongrass; [1]): 0
Johnsongrass plant response rating (johnsongrass; [2]): 0
Plant response rating, Johnsongrass (johnsongrass; [3]): 0
Plant response rating (scale of 0 to 100), Johnsongrass (johnsongrass; Preemergence, 250 g ai/ha): 45
Ragweed plant response rating (ragweed; [2]): 0
Plant response rating, Ragweed (ragweed; [3]): 0
Plant response rating (scale of 0 to 100), Ragweed (ragweed; Preemergence, 250 g ai/ha): 35
Plant response rating, Wheat (wheat; [4]): 0
Plant response rating, Wheat (wheat; [5]): 30
Oilseed Rape plant response rating (oilseed rape; [1]): 0
Oilseed Rape plant response rating (oilseed rape; [2]): 0
Plant response rating, Oilseed Rape (oilseed rape; [3]): 0
Plant response rating (scale of 0 to 100), Oilseed Rape (oilseed rape; Preemergence, 250 g ai/ha): 5
Wheat plant response rating (wheat (winter wheat); [2]): 0
Plant response rating, Wheat (wheat (winter wheat); [3]): 5
Plant response rating (scale of 0 to 100), Wheat (wheat (winter wheat); Preemergence, 250 g ai/ha): 15
Velvetleaf plant response rating (velvetleaf; [2]): 0
Plant response rating, Velvetleaf (velvetleaf; [3]): 0
Plant response rating (scale of 0 to 100), Velvetleaf (velvetleaf; Preemergence, 250 g ai/ha): 0
Plant response rating, Sedge, Umbrella (sedge, umbrella): 0

O=C1NCC(c2cccc(Br)c2)C1C(=O)Nc1cccc(F)c1F (stereo not shown) [Compound 309]
Plant response rating, Pigweed (pigweed; [6]): 30
Plant response rating, Pigweed (pigweed; [7]): 50
Plant response rating, Pigweed (pigweed; [8]): 50
Plant response rating, Pigweed (pigweed; [9]): 60
Pigweed plant response rating (pigweed; [1]): 0
Pigweed plant response rating (pigweed; [2]): 0
Plant response rating, Pigweed (pigweed; [3]): 0
Plant response rating (scale of 0 to 100), Pigweed (pigweed; Preemergence, 250 g ai/ha): 40
Plant response rating, Rice (rice): 0
Plant response rating, Crabgrass, Large (crabgrass, large; [6]): 0
Plant response rating, Crabgrass, Large (crabgrass, large; [7]): 30
Plant response rating, Crabgrass, Large (crabgrass, large; [8]): 60
Plant response rating, Crabgrass, Large (crabgrass, large; [9]): 65
Crabgrass, Large plant response rating (crabgrass, large; [1]): 90
Crabgrass, Large plant response rating (crabgrass, large; [2]): 90
Plant response rating, Crabgrass, Large (crabgrass, large; [3]): 95
Plant response rating (scale of 0 to 100), Crabgrass, Large (crabgrass, large; Preemergence, 250 g ai/ha): 98
Plant response rating, Blackgrass (blackgrass; [6]): 0
Plant response rating, Blackgrass (blackgrass; [7]): 0
Plant response rating, Blackgrass (blackgrass; [8]): 5
Plant response rating, Blackgrass (blackgrass; [9]): 5
Blackgrass plant response rating (blackgrass; [1]): 0
Blackgrass plant response rating (blackgrass; [2]): 0
Plant response rating, Blackgrass (blackgrass; [3]): 50
Plant response rating (scale of 0 to 100), Blackgrass (blackgrass; Preemergence, 250 g ai/ha): 45
Plant response rating, Barnyardgrass (barnyardgrass): 65
Plant response rating, Johnsongrass (johnsongrass; [6]): 0
Plant response rating, Johnsongrass (johnsongrass; [7]): 0
Plant response rating, Johnsongrass (johnsongrass; [8]): 0
Plant response rating, Johnsongrass (johnsongrass; [9]): 15
Johnsongrass plant response rating (johnsongrass; [1]): 10
Johnsongrass plant response rating (johnsongrass; [2]): 10
Plant response rating, Johnsongrass (johnsongrass; [3]): 60
Plant response rating (scale of 0 to 100), Johnsongrass (johnsongrass; Preemergence, 250 g ai/ha): 80
Plant response rating, Ragweed (ragweed; [6]): 0
Plant response rating, Ragweed (ragweed; [7]): 0
Plant response rating, Ragweed (ragweed; [8]): 35
Plant response rating, Ragweed (ragweed; [9]): 40
Ragweed plant response rating (ragweed; [2]): 10
Plant response rating, Ragweed (ragweed; [3]): 25
Plant response rating (scale of 0 to 100), Ragweed (ragweed; Preemergence, 250 g ai/ha): 65
Plant response rating, Wheat (wheat; [4]): 40
Plant response rating, Wheat (wheat; [5]): 60
Plant response rating, Oilseed Rape (oilseed rape; [6]): 35
Plant response rating, Oilseed Rape (oilseed rape; [7]): 30
Plant response rating, Oilseed Rape (oilseed rape; [8]): 40
Plant response rating, Oilseed Rape (oilseed rape; [9]): 5
Oilseed Rape plant response rating (oilseed rape; [1]): 0
Oilseed Rape plant response rating (oilseed rape; [2]): 0
Plant response rating, Oilseed Rape (oilseed rape; [3]): 50
Plant response rating (scale of 0 to 100), Oilseed Rape (oilseed rape; Preemergence, 250 g ai/ha): 70
Plant response rating, Wheat (wheat (winter wheat); [6]): 0
Plant response rating, Wheat (wheat (winter wheat); [7]): 0
Plant response rating, Wheat (wheat (winter wheat); [8]): 0
Plant response rating, Wheat (wheat (winter wheat); [9]): 0
Wheat plant response rating (wheat (winter wheat); [2]): 0
Plant response rating, Wheat (wheat (winter wheat); [3]): 0
Plant response rating (scale of 0 to 100), Wheat (wheat (winter wheat); Preemergence, 250 g ai/ha): 0
Plant response rating, Velvetleaf (velvetleaf; [6]): 5
Plant response rating, Velvetleaf (velvetleaf; [7]): 5
Plant response rating, Velvetleaf (velvetleaf; [8]): 5
Plant response rating, Velvetleaf (velvetleaf; [9]): 15
Velvetleaf plant response rating (velvetleaf; [2]): 0
Plant response rating, Velvetleaf (velvetleaf; [3]): 0
Plant response rating (scale of 0 to 100), Velvetleaf (velvetleaf; Preemergence, 250 g ai/ha): 15
Plant response rating, Sedge, Umbrella (sedge, umbrella): 0
